Experimental data: paper PMC11219871, “Epigenetic-based differentiation therapy for Acute Myeloid Leukemia” (Nature Communications, 2024)
Where “and” joins values, the source holds several entries; their conditions need not be identical. Equal values may be shown once. Read-outs that look alike come from different tables or passages of the source.

How the values were obtained:
Format in all cases: cell-based, human
HL-60 [1] = assay: Differentiation-apoptosis assay, CD11b / annexin-V / Sytox Green / myeloid markers flow cytometry; design: CD11b levels: unit not given here; conditions: HL-60 treated daily for 48 h; replicates (Fig 6D)
Protocol: Next, the cells were washed twice with phosphate-buffered saline (PBS) and resuspended in 1X Binding Buffer at a concentration of 1 × 10^6 cells/mL. […] Finally, after the addition of 400 µL of 1X Binding Buffer to each tube, samples were collected on a BD FACSCanto flow cytometer (Becton Dickinson, San Jose, CA, USA) and analyzed using FlowJo software.
Then, 1 million cells (volume of 250 µL) were added and incubated for 30 min at room temperature in darkness. After 10 min incubation at room temperature with 2 mL of FACSLysing 1X, cells were centrifuged at 540 g for 5 min and washed twice with FACSBuffer. Finally, after centrifugation at 540 g for 5 min cells were resuspended in FACSBuffer.

ML-2 [2] = assay: as above; design: CD11b levels: unit not given here; conditions: ML-2 treated daily for 48 h; replicates (Fig 6E)
Protocol: (§1) Next, the cells were washed twice with phosphate-buffered saline (PBS) and resuspended in 1X Binding Buffer at a concentration of 1 × 10^6 cells/mL. An 8-µL aliquot of APC-CD11b (BD Pharmingen, Franklin Lakes, NJ, USA) and 1 µL of FITC annexin-V (AV) (BD Pharmingen, Franklin Lakes, NJ, USA) antibodies were added and incubated for 15 min at room temperature in the dark. Finally, after the addition of 400 µL of 1X Binding Buffer to each tube, samples were collected on a BD FACSCanto flow cytometer (Becton Dickinson, San Jose, CA, USA) and analyzed using FlowJo software.
(§2) For the rest of experiments, the mix of antibodies (2 µL of BV786-CD13, Cat No, 744748 BD; 1 µL of diluted 1:10 antibody of PB-HLADR, Cat No 307633, Biolegend; 5 µL of APCH7-CD14, Cat No 641394, BD) was added to 10 µL of Brilliant Stain Buffer Plus (Becton Dickinson, San Jose, CA, USA). Then, 1 million cells (volume of 250 µL) were added and incubated for 30 min at room temperature in darkness. After 10 min incubation at room temperature with 2 mL of FACSLysing 1X, cells were centrifuged at 540 g for 5 min and washed twice with FACSBuffer. Finally, after centrifugation at 540 g for 5 min cells were resuspended in FACSBuffer.

MV4-11 [3] = assay: q-RT-PCR of MYC, CDKN2A, CDKN1A, GATA2, TAL1, CEBPA, SPI1; conditions: MV4-11, daily treatment for 48 h, replicates 1-3
Protocol: (§3) RNA was extracted with TRIzol Reagent (Invitrogen) according to the manufacturer’s instructions. First, cDNA was synthesized from 1 µg of total RNA using the PrimeScript RT reagent Kit (Perfect Real Time) (Cat No RR037A, TaKaRa) following the manufacturer’s instructions. The quality of cDNA was checked by a multiplex PCR that amplifies PBGD, ABL, BCR and β2-MG genes. […] The following program conditions were used for the q-PCR: 50 °C for 2 min, 95 °C for 60 s following by 45 cycles at 95 °C for 15 s and 60 °C for 60 s; melting program, one cycle at 95 °C for 15 s, 40 °C for 60 s, and 95 °C for 15 s. The relative expression of each gene was quantified by the […] method using the gene GUS as an endogenous control. The sequence of primers used can be found in Supplementary Table 10.

HL-60 [4] = assay: as above; conditions: HL-60 treated daily for 48 h; replicates (Fig 6F)
Protocol: as §3

ML-2 [5] = assay: as above; conditions: ML-2 treated daily for 48 h; replicates (Fig 6G)
Protocol: as §3

MOLM-13 [6] = assay: as above; conditions: MOLM-13, daily treatment for 48 h, replicates 1-3
Protocol: as §3

MV4-11 [7] = assay: Differentiation-apoptosis assay, CD11b / annexin-V / Sytox Green / myeloid markers flow cytometry; design: CD11b levels: unit not given here; conditions: MV4-11, daily treatment for 48 h, replicates 1-3 (Suppl. Fig. 9A)
Protocol: as §1, §2

MOLM-13 [8] = assay: as above; design: CD11b levels: unit not given here; conditions: MOLM-13, daily treatment for 48 h, replicates 1-3 (Suppl. Fig. 9A)
Protocol: as §1, §2

MV4-11 [9] = assay: Cell proliferation assay: GI50
Protocol: (§4) Cell proliferation was analyzed using the CellTiter 96 Aqueous One Solution Cell Proliferation Assay (Promega, Madison, WI). This is a colorimetric method for determining the number of viable cells in proliferation. For the assay, suspension cells were cultured in triplicate at a density of 1 × 10^6 cells/mL in 96-well plates (100.000 cells/well, 100 µL/well), using only the 60 inner wells to avoid any border effects. […] Then, the cells were incubated with 100 μL/well of medium and 20 μL/well of CellTiter 96 Aqueous One Solution reagent for 1–3 h. […] The background absorbance was measured in wells with only cell line medium and solution reagent. First, the average of the absorbance from the control wells was subtracted from all other absorbance values. Data were calculated as the percentage of total absorbance of treated cells/absorbance of non-treated cells. The GI50 values of the different compounds were determined using non-linear regression plots made with GraphPad Prism v5 software.

HL-60 [10] = assay: Cell proliferation assay: GI50; conditions: read-out: GI50
Protocol: as §4

ML-2 [11] = assay: Cell proliferation assay: GI50
Protocol: as §4

MOLM-13 [12] = assay: Cell proliferation assay: GI50
Protocol: as §4

Structure (SMILES): Cc1sc2c(c1C)C(c1ccc(Cl)cc1)=N[C@@H](CC(=O)OC(C)(C)C)c1nnc(C)n1-2 [JQ1, reference compound]
- CD11b levels (HL-60 [1]): 14.4 and 10.4 and 18.9
- CD11b levels (ML-2 [2]): 12.1 and 9.5 and 15.4
- q-PCR of CEBPA, log10 (2-ΔΔCt) (MV4-11 [3]): 0.0684 and 0.023 and -0.05782
- q-PCR of GATA2, log10 (2-ΔΔCt) (MV4-11 [3]): -0.3858 and -0.3755 and -0.4115
- q-PCR of MYC, log10 (2-ΔΔCt) (MV4-11 [3]): -0.6192 and -0.5693 and -0.4576
- q-PCR of SPI1, log10 (2-ΔΔCt) (MV4-11 [3]): -0.1789 and -0.2041 and -0.25
- q-PCR of TAL1, log10 (2-ΔΔCt) (MV4-11 [3]): -1.126 and -0.6585 and -1.208
- q-PCR of CEBPA (HL-60 [4]): -0.3248 log10 (2-ΔΔCt) and -0.277 log10 (2-ΔΔCt) and -0.3773 log10 (2-ΔΔCt)
- q-PCR of GATA2 (HL-60 [4]): -0.4169 log10 (2-ΔΔCt) and -0.4604 log10 (2-ΔΔCt) and -0.5063 log10 (2-ΔΔCt)
- q-PCR of MYC (HL-60 [4]): -1.0533 log10 (2-ΔΔCt) and -1.072 log10 (2-ΔΔCt) and -1.203 log10 (2-ΔΔCt)
- q-PCR of SPI1 (HL-60 [4]): 0.1686 log10 (2-ΔΔCt) and 0.1558 log10 (2-ΔΔCt) and 0.1908 log10 (2-ΔΔCt)
- q-PCR of TAL1 (HL-60 [4]): 0.3073 log10 (2-ΔΔCt)
- q-PCR of CEBPA (ML-2 [5]): 0.003145 log10 (2-ΔΔCt) and -0.05186 log10 (2-ΔΔCt) and 0.00217 log10 (2-ΔΔCt)
- q-PCR of GATA2 (ML-2 [5]): -0.7948 log10 (2-ΔΔCt) and -0.4733 log10 (2-ΔΔCt) and -0.5146 log10 (2-ΔΔCt)
- q-PCR of MYC (ML-2 [5]): -1.0744 log10 (2-ΔΔCt) and -1.048 log10 (2-ΔΔCt) and -1.0236 log10 (2-ΔΔCt)
- q-PCR of SPI1 (ML-2 [5]): -0.3978 log10 (2-ΔΔCt) and -0.4936 log10 (2-ΔΔCt) and -0.3253 log10 (2-ΔΔCt)
- q-PCR of TAL1 (ML-2 [5]): -0.9571 log10 (2-ΔΔCt) and -0.8702 log10 (2-ΔΔCt) and -0.7161 log10 (2-ΔΔCt)
- q-PCR of CEBPA, log10 (2-ΔΔCt) (MOLM-13 [6]): -0.258 and -0.1482 and -0.3669
- q-PCR of GATA2, log10 (2-ΔΔCt) (MOLM-13 [6]): -0.2598 and -0.4259 and -0.3898
- q-PCR of MYC, log10 (2-ΔΔCt) (MOLM-13 [6]): -0.7137 and -0.6985 and -0.8216
- q-PCR of SPI1, log10 (2-ΔΔCt) (MOLM-13 [6]): -0.9325 and -0.8224 and -0.9326
- q-PCR of TAL1, log10 (2-ΔΔCt) (MOLM-13 [6]): -0.4726 and -0.5813 and -0.6816
- CD11b levels (MV4-11 [7]): 12.1 and 10.6 and 16.7
- CD11b levels (MOLM-13 [8]): 22.1 and 20.7 and 18.1
- GI50 (MV4-11 [9]; MV4-11, 48 h): > 10 µM
- GI50 (MV4-11 [9]; MV4-11, replicates 1-3, µM for the other inhibitors): > 10 µM
- GI50 (HL-60 [10]; HL-60, 48 h): > 10 µM
- GI50 (HL-60 [10]; HL-60, replicates 1-3, µM for the other inhibitors): > 10 µM
- GI50 (ML-2 [11]; ML-2, 48 h): > 10 µM
- GI50 (ML-2 [11]; ML-2, replicates 1-3, µM for the other inhibitors): > 10 µM
- GI50 (MOLM-13 [12]; MOLM-13, 48 h): > 10 µM
- GI50 (MOLM-13 [12]; MOLM-13, replicates 1-3, µM for the other inhibitors): > 10 µM
